Laboratory results taken from patent publication US8697739B2, “Bicyclic acetyl-CoA carboxylase inhibitors and uses thereof” (Novartis AG, priority 2010, dated 2014).

Biological target: T1, human acetyl-CoA carboxylase 2 (ACC2) (Homo sapiens, UniProt O00763)
T1 construct: The cDNA encoding amino acids 144 to 2458 of human acetyl-CoA carboxylase 2; made in house; host or cells: Sf9 insect cells (baculovirus, pFastBac1)
Assay: Acetyl-CoA carboxylase enzyme assay (malonyl-CoA formation by LC/MS/MS)
Assay type: biochemical
Conditions: recombinant human ACC2 (aa 144-2458); read-out: IC50 ACC2
Method in brief: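 Malonyl-CoA formation was read by LC/MS/MS MRM against a [13C3]-malonyl-CoA internal standard, after acetic acid quench. The enzyme was baculovirus/Sf9-expressed human ACC2 residues 144–2458, given 15 minutes room-temperature compound preincubation in HEPES pH 7.5 buffer with MgCl2, citrate and DTT. Substrate solution held 50 μM acetyl-CoA, 120 μM ATP and 2 mM KHCO3.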

T1 sequence (O00763 144-2458): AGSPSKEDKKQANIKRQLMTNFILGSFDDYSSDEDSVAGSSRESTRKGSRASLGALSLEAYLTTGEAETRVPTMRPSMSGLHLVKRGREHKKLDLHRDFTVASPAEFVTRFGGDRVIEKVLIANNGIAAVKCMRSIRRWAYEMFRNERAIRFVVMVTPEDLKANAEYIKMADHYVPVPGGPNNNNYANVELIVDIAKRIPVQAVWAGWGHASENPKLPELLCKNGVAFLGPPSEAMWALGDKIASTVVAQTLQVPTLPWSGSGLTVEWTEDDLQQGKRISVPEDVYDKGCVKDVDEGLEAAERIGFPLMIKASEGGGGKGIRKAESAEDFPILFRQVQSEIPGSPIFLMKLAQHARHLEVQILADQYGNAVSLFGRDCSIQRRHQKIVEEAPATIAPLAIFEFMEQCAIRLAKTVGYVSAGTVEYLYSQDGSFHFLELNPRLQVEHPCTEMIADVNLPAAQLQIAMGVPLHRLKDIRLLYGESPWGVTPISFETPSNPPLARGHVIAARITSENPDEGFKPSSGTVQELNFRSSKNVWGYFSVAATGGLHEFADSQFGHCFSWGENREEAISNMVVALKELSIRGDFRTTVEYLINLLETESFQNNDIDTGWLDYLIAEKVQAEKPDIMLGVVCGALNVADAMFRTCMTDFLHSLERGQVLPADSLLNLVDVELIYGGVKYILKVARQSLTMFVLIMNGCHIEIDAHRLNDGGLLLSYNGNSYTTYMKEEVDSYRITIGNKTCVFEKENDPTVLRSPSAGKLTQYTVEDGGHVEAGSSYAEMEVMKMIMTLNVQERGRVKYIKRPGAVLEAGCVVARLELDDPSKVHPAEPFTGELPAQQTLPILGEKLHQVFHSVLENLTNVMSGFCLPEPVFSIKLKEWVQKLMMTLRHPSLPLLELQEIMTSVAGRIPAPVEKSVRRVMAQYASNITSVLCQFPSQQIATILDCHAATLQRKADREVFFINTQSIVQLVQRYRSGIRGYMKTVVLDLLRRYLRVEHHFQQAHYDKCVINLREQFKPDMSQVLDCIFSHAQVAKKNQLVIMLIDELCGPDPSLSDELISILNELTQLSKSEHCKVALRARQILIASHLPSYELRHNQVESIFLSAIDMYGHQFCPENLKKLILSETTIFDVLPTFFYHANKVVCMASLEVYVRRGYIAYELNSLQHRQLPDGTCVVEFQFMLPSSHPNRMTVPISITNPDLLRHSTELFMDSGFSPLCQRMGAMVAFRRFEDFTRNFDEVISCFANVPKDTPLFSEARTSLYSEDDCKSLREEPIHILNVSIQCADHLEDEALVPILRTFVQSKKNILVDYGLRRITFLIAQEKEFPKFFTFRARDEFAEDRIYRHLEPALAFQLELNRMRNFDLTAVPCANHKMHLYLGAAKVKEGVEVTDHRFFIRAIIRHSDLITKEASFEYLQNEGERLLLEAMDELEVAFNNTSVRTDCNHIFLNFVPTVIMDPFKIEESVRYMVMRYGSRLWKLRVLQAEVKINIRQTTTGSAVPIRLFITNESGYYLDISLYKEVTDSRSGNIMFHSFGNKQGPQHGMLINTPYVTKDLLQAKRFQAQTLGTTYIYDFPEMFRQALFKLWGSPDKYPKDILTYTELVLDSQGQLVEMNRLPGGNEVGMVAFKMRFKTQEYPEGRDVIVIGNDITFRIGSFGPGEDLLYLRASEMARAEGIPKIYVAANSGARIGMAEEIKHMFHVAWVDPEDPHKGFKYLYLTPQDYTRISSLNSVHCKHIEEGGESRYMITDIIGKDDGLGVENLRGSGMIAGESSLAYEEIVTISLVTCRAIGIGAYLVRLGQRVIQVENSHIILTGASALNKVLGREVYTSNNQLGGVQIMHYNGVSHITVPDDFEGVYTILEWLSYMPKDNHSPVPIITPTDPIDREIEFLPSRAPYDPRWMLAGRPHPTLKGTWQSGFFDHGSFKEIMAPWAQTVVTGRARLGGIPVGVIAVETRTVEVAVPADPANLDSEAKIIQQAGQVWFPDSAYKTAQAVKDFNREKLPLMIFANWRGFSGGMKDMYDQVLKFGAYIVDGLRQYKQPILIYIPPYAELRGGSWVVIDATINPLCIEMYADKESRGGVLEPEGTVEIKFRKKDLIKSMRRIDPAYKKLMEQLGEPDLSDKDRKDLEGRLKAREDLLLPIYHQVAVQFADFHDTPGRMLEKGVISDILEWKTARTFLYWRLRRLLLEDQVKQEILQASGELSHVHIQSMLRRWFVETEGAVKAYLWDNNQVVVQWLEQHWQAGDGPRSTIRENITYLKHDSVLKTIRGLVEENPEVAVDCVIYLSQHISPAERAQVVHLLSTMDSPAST

Row | Compound | IC50 [nM]
1 | CCOC(=O)C1CCCCN1C(=O)[C@H]1CC[C@H](NS(=O)(=O)c2ccc3cc(-c4ccc(COC)cc4)[nH]c3c2)CC1 (stereo partly shown) [Example 340, ethyl 1-((1r,4r)-4-(2-(4-(methoxymethyl)phenyl)-1H-indole-6-sulfonamido)cyclohexanecarbonyl)piperidine-2-carboxylate] | 255
2 | CCOC(=O)C1CCCCN1C(=O)[C@H]1CC[C@H](NS(=O)(=O)c2ccc3cc(-c4ccc(COC)cc4)n(C)c3c2)CC1 (stereo partly shown) [Example 341, ethyl 1-((1r,4r)-4-(2-(4-(methoxymethyl)phenyl)-1-methyl-1H-indole-6-sulfonamido)cyclohexanecarbonyl)piperidine-2-carboxylate] | 240
3 | Cc1ccccc1-c1cc2ccc(S(=O)(=O)N[C@H]3CC[C@H](C(=O)N4CCN[C@H](C(F)(F)F)C4)CC3)cc2[nH]1 [Example 342, 2-o-tolyl-N-((1S,4r)-4-((S)-3-(trifluoromethyl)piperazine-1-carbonyl)cyclohexyl)-1H-indole-6-sulfonamide] | 135
4 | Cc1ccccc1-c1cc2ccc(S(=O)(=O)N[C@H]3CC[C@H](C(=O)N4CCN[C@@H](C(F)(F)F)C4)CC3)cc2[nH]1 [Example 343, 2-o-tolyl-N-((1R,4r)-4-((R)-3-(trifluoromethyl)piperazine-1-carbonyl)cyclohexyl)-1H-indole-6-sulfonamide] | 170
5 | CCOC(=O)C1CCCN(C(=O)[C@H]2CC[C@H](NS(=O)(=O)c3ccc4cc(-c5ccc(F)cc5)n(C)c4c3)CC2)C1 (stereo partly shown) [Example 345, ethyl 1-((1r,4r)-4-(2-(4-fluorophenyl)-1-methyl-1H-indole-6-sulfonamido)cyclohexanecarbonyl)piperidine-3-carboxylate] | 255
6 | Cn1c(-c2ccc(F)cc2)cc2ccc(S(=O)(=O)N[C@H]3CC[C@H](C(=O)N4CCCC(C(=O)O)C4)CC3)cc21 (stereo partly shown) [Example 346, 1-((1r,4r)-4-(2-(4-fluorophenyl)-1-methyl-1H-indole-6-sulfonamido)cyclohexanecarbonyl)piperidine-3-carboxylic acid] | 265
7 | Cn1c(-c2ccc(CO)cc2)cc2ccc(S(=O)(=O)N[C@H]3CC[C@H](C(=O)N4CCNC(=O)C4)CC3)cc21 [Example 347, 2-(4-(hydroxymethyl)phenyl)-1-methyl-N-((1r,4r)-4-(3-oxopiperazine-1-carbonyl)cyclohexyl)-1H-indole-6-sulfonamide] | 120
8 | CCN(C)C(=O)[C@H]1CC[C@H](NS(=O)(=O)c2ccc3cc(-c4ccc(CO)cc4)n(C)c3c2)CC1 [Example 349, (1r,4r)-N-ethyl-4-(2-(4-(hydroxymethyl)phenyl)-1-methyl-1H-indole-6-sulfonamido)-N-methylcyclohexanecarboxamide] | 100
9 | CC(C)n1c(-c2ccc(F)cc2)c(Cl)c2ccc(S(=O)(=O)N[C@H]3CC[C@H](C(=O)N4CCNC(C(F)(F)F)C4)CC3)cc21 (stereo partly shown) [Example 350, 3-chloro-2-(4-fluorophenyl)-1-isopropyl-N-((1r,4r)-4-(3-(trifluoromethyl)piperazine-1-carbonyl)cyclohexyl)-1H-indole-6-sulfonamide] | 470
10 | Cn1c(C2CC2)cc2ccc(S(=O)(=O)N[C@H]3CC[C@H](C(=O)N4CCNC(C(F)(F)F)C4)CC3)cc21 (stereo partly shown) [Example 356, 2-cyclopropyl-1-methyl-N-((1r,4r)-4-(3-(trifluoromethyl)piperazine-1-carbonyl)cyclohexyl)-1H-indole-6-sulfonamide] | 560
11 | COC(=O)CCc1ccc(-c2cc3ccc(S(=O)(=O)N[C@H]4CC[C@H](C(=O)N5CCCCC5)CC4)cc3n2C)cc1 [Example 357, methyl 3-(4-(1-methyl-6-(N-((1r,4r)-4-(piperidine-1-carbonyl)cyclohexyl)sulfamoyl)-1H-indol-2-yl)phenyl)propanoate] | 120
12 | Cn1c(-c2ccc(CCC(=O)O)cc2)cc2ccc(S(=O)(=O)N[C@H]3CC[C@H](C(=O)N4CCCCC4)CC3)cc21 [Example 359, 3-(4-(1-methyl-6-(N-((1r,4r)-4-(piperidine-1-carbonyl)cyclohexyl)sulfamoyl)-1H-indol-2-yl)phenyl)propanoic acid] | 95
13 | Cn1c(C2CC2)c(Cl)c2ccc(S(=O)(=O)N[C@H]3CC[C@H](C(=O)N4CCOCC4)CC3)cc21 [Example 363, 3-chloro-2-cyclopropyl-1-methyl-N-((1r,4r)-4-(morpholine-4-carbonyl)cyclohexyl)-1H-indole-6-sulfonamide] | 120
14 | CCN(C)C(=O)[C@H]1CC[C@H](NS(=O)(=O)c2ccc3cc(-c4ccc(CCC(=O)OC)cc4)n(C)c3c2)CC1 [Example 364, methyl 3-(4-(6-(N-((1r,4r)-4-(ethyl(methyl)carbamoyl)cyclohexyl)sulfamoyl)-1-methyl-1H-indol-2-yl)phenyl)propanoate] | 140
15 | CCN(C)C(=O)[C@H]1CC[C@H](NS(=O)(=O)c2ccc3cc(-c4ccc(CCC(=O)O)cc4)n(C)c3c2)CC1 [Example 365, 3-(4-(6-(N-((1r,4r)-4-(ethyl(methyl)carbamoyl)cyclohexyl)sulfamoyl)-1-methyl-1H-indol-2-yl)phenyl)propanoic acid] | 410

Other lines, results leading:

Row | IC50 [nM] | Compound
16 | 60 | Cn1c(-c2ccc(F)cc2)cc2ccc(S(=O)(=O)N[C@H]3CC[C@H](C(=O)N4CCNC(C(F)(F)F)C4)CC3)cc21 (stereo partly shown) [Example 344, 2-(4-fluorophenyl)-1-methyl-N-((1r,4r)-4-(3-(trifluoromethyl)piperazine-1-carbonyl)cyclohexyl)-1H-indole-6-sulfonamide]
17 | 45 | O=C([C@H]1CC[C@H](NS(=O)(=O)c2ccc3cc(-c4ccc(F)cc4)[nH]c3c2)CC1)N1CCNC(C(F)(F)F)C1 (stereo partly shown) [Example 348, 2-(4-fluorophenyl)-N-((1r,4r)-4-(3-(trifluoromethyl)piperazine-1-carbonyl)cydohexyl)-1H-indole-6-sulfonamide]
18 | 95 | COC(=O)[C@@H](NC(=O)[C@H]1CC[C@H](NS(=O)(=O)c2ccc3cc(-c4ccccc4)n(C)c3c2)CC1)c1ccccc1 [Example 351, (S)-methyl 2-((1r,4S)-4-(1-methyl-2-phenyl-1H-indole-6-sulfonamido)cyclohexanecarboxamido)-2-phenylacetate]
19 | < 10 | Cn1c(-c2ccccc2)cc2ccc(S(=O)(=O)N[C@H]3CC[C@H](C(=O)N[C@@H](c4ccccc4)C(C)(C)O)CC3)cc21 [Example 352, (1r,4S)-N-((S)-2-hydroxy-2-methyl-1-phenylpropy1)-4-(1-methyl-2-phenyl-1H-indole-6-sulfonamido)cyclohexanecarboxamide]
20 | < 10 | Cn1c(-c2ccccc2)cc2ccc(S(=O)(=O)N[C@H]3CC[C@H](C(=O)N[C@H](CO)c4ccccc4)CC3)cc21 [Example 353, (1r,4S)-N-((S)-2-hydroxy-1-phenylethyl)-4-(1-methyl-2-phenyl-1H-indole-6-sulfonamido)cyclohexanecarboxamide]
21 | < 10 | Cn1c(-c2ccccc2)cc2ccc(S(=O)(=O)N[C@H]3CC[C@H](C(=O)N4CC(=O)NC[C@@H]4c4ccccc4)CC3)cc21 [Example 354, 1-methyl-N-((1S,4r)-4-((S)-5-oxo-2-phenylpiperazine-1-carbonyl)cyclohexyl)-2-phenyl-1H-indole-6-sulfonamide]
22 | < 10 | Cn1c(C2CC2)cc2ccc(S(=O)(=O)N[C@H]3CC[C@H](C(=O)N[C@@H](c4ccccc4)C(C)(C)O)CC3)cc21 [Example 355, (1r,4S)-4-(2-cyclopropyl-1-methyl-1H-indole-6-sulfonamido)-N-((S)-2-hydroxy-2-methyl-1-phenylpropyl)cyclohexanecarboxamide]
23 | 35 | O=C(O)CCc1ccc(-c2cc3ccc(S(=O)(=O)N[C@H]4CC[C@H](C(=O)N5CCCCC5)CC4)cc3[nH]2)cc1 [Example 358, 3-(4-(6-(N-((1r,4r)-4-(piperidine-1-carbonyl)cyclohexyl)sulfamoyl)-1H-indol-2-yl)phenyl)propanoic acid]
24 | 35 | COC(=O)CCc1ccc(-c2c(Cl)c3ccc(S(=O)(=O)N[C@H]4CC[C@H](C(=O)N5CCCCC5)CC4)cc3n2C)cc1 [Example 360, methyl 3-(4-(3-chloro-1-methyl-6-(N-((1r,4r)-4-(piperidine-1-carbonyl)cyclohexyl)sulfamoyl)-1H-indol-2-yl)phenyl)propanoate]
25 | 10 | Cn1c(-c2ccc(CCC(=O)O)cc2)c(Cl)c2ccc(S(=O)(=O)N[C@H]3CC[C@H](C(=O)N4CCCCC4)CC3)cc21 [Example 361, 3-(4-(3-chloro-1-methyl-6-(N-((1r,4r)-4-(piperidine-1-carbonyl)cyclohexyl)sulfamoyl)-1H-indol-2-yl)phenyl)propanoic acid]
26 | 75 | Cn1c(C2CC2)c(Cl)c2ccc(S(=O)(=O)N[C@H]3CC[C@H](C(=O)N4CCN[C@@H](C(F)(F)F)C4)CC3)cc21 [Example 362, 3-chloro-2-cyclopropyl-1-methyl-N-((1R,4r)-4-((R)-3-(trifluoromethyl)piperazine-1-carbonyl)cyclohexyl)-1H-indole-6-sulfonamide]
27 | 15 | CCN(C)C(=O)[C@H]1CC[C@H](NS(=O)(=O)c2ccc3c(Cl)c(-c4ccc(CCC(=O)O)cc4)n(C)c3c2)CC1 [Example 366, 3-(4-(3-chloro-6-(N-((1r,4r)-4-(ethyl(methyl)carbamoyl)cyclohexyl)sulfamoyl)-1-methyl-1H-indol-2-yl)phenyl)propanoic acid]
28 | 30 | CCN(C)C(=O)[C@H]1CC[C@H](NS(=O)(=O)c2ccc3c(Cl)c(-c4ccc(CCC(=O)OC)cc4)n(C)c3c2)CC1 [Example 367, methyl 3-(4-(3-chloro-6-(N-((1r,4r)-4-(ethyl(methyl)carbamoyl)cyclohexyl)sulfamoyl)-1-methyl-1H-indol-2-yl)phenyl)propanoate]
